One data set deals with p38 MAPKα (Homo sapiens (Human), UniProt Q16539). Put plainly: p38 MAPKα enzyme inhibition (FRET, Z-LYTE; Method 2). In kind it is biochemical. The procedure: (§1) The enzyme inhibitory activities of compounds disclosed herein are determined by FRET using synthetic peptides labelled with both donor and acceptor fluorophores (Z-LYTE, Invitrogen Ltd., Paisley, UK).
The inhibitory activities of test compounds against the p38 MAPKα isoform (MAPK14: Invitrogen) are evaluated indirectly by determining the level of activation/phosphorylation of the down-stream molecule, MAPKAP-K2. The p38 MAPKα protein (80 ng/mL, 2.5 μL) is mixed with the test compound (2.5 μL of either 4 μg/mL, 0.4 μg/mL, 0.04 μg/mL or 0.004 μg/mL) for 2 hr at RT. […] The mixture is incubated for 1 hr at RT. Development reagent (protease, 5 μL) is added for 1 hr prior to detection in a fluorescence microplate reader (Varioskan® Flash, ThermoFisher Scientific).
This method follows the same steps as Method 1 above, but utilises a higher concentration of the p38 MAPKα protein (2.5 μL of 200 ng/mL protein instead of 2.5 μL of 80 ng/mL protein) for mixing with the test compound (tested at either 1 μg/mL, 0.1 μg/mL, 0.01 μg/mL or 0.001 μg/mL).
(§2) In all cases, the site-specific protease cleaves non-phosphorylated peptide only and eliminates the FRET signal. Phosphorylation levels of each reaction are calculated using the ratio of coumarin emission (donor) over fluorescein emission (acceptor), for which high ratios indicate high phosphorylation and low ratios indicate low phosphorylation levels. […]

In the next data set the target is c-Src (Homo sapiens (Human), UniProt P12931). Description: c-Src enzyme inhibition (FRET, Z-LYTE). In kind it is biochemical. The procedure: as §1
c-Src, sequence (P12931 whole entry, looked up): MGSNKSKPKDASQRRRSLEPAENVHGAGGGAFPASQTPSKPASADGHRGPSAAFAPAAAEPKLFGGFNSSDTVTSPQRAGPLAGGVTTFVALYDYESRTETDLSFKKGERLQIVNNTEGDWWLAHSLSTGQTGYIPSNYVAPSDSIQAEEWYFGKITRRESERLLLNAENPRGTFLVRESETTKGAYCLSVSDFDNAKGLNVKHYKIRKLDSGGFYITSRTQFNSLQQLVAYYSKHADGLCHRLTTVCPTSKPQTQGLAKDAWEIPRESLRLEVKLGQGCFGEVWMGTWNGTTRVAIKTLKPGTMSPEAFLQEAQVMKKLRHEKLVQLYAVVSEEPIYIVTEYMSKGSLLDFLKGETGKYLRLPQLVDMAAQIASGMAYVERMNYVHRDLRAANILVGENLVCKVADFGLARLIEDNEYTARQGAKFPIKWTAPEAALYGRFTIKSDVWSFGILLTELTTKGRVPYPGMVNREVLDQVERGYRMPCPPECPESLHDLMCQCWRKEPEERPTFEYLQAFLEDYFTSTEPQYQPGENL
(§3) The inhibitory activities of compounds of the invention against c-Src and Syk enzymes (Invitrogen), are evaluated in a similar fashion to that described hereinabove. The relevant enzyme (3000 ng/mL or 2000 ng/mL respectively, 2.5 μL) is incubated with the test compound (either 1 μg/mL, 0.1 μg/mL, 0.01 μg/mL, or 0.001 μg/mL, 2.5 μL each) for 2 hr at RT. The FRET peptides (8 μM. 2.5 μL), and appropriate ATP solutions (2.5 μL, 800 μM for c-Src, and 60 μM ATP for Syk) are then added to the enzymes/compound mixtures and the mixture incubated for 1 hr. Development reagent (protease, 5 μL) is added for 1 hr prior to detection in a fluorescence microplate reader (Varioskan® Flash, ThermoFisher Scientific).
as §2

The target in another data set is Syk (Homo sapiens (Human), UniProt P43405). Put plainly: Syk enzyme inhibition (FRET, Z-LYTE). Format: biochemical. How it is done: as §1, §3, §2
For the next data set, the system named is IL-8 release in PBMCs. Description: LPS-induced IL-8 release in PBMC cells (assay (b)). Format: cell-based. The following applies: Homo sapiens, LPS-stimulated PBMCs. An excerpt:
Peripheral blood mononuclear cells (PBMCs) from healthy subjects are separated from whole blood using a density gradient (Lymphoprep, Axis-Shield Healthcare). […] The supernatant is harvested for determination of IL-8 and TNFα concentrations by sandwich ELISA (Duo-set, R&D systems) and read on the fluorescence microplate reader (Varioskan® Flash, ThermoFisher Scientific).

The test system of data set [1] is IFN gamma release in PBMCs. Put plainly: IFN gamma release in CD3/CD28 stimulated PBMC cells (assay (c)). Format: cell-based. The following applies: Homo sapiens, read-out: IC50 Values in PBMCs IFNγ. The procedure: PBMCs from healthy subjects are separated from whole blood using a density gradient (Lymphoprep, Axis-Shield Healthcare). Cells are added to a 96 well plate pre-coated with a mixture of CD3/CD28 monoclonal antibodies (0.3 μg/mL eBioscience and 3 μg/mL BD Pharmingen respectively). Compound at the desired concentration is then added to the wells and the plate left for 3 days under normal tissue culture conditions. Supernatants are harvested and IL-2 and IFN gamma release determined by Sandwich ELISA (Duo-set, R&D System). The IC50 is determined from the dose response curve.

A further data set deals with Jurkat cells. Description: Cell cytotoxicity assay, Jurkat cell viability (assay (r)). In kind it is cell-based, human. The following applies: 24 hours. The procedure:
1×10^5 Jurkat cells (immortalised human T lymphocytes) are added to the appropriate number of wells of a 96 well plate in 100 μL of media (RPMI supplemented with 10% foetal bovine serum). 1 μL of DMSO control (final concentration 1.0% v/v) or test compound (final concentration 20, 5 or 1 μg/mL) is added to the wells and incubated at 37° C., 5% CO2. After 24 hours, the plate is centrifuged at 1200 rpm for 3 minutes and the supernatant discarded. Cells are then resuspended in 150 μL (final concentration 7.5 μg/mL) of propidium iodide (PI) in PBS and incubated at 37° C., 5% CO2 for 15 minutes. After 15 minutes, cells are analysed by flow cytometry (BD accuri) using the FL3 window. The % viability is calculated as the % of cells that are P negative in the test wells normalised to the DMSO control.

Data set [2] can be described thus: Solubility in fasted-state simulated colonic fluid (FaSSCoF) at pH 6.5. In kind it is physicochemical. The following applies: fasted-state simulated colonic fluid (FaSSCoF), 25 °C, pH 6.5, fassgf or other biorelevant, thermodynamic from solid, pH 6.5, 25° C. How it is done:
The solubilities of compounds of the invention in FaSSCoF at pH 6.5 are determined using a modification of a previously-reported procedure (Vertzoni, M., et al. Pharm. Res. 2010, 27, 2187-2196). In place of the bile salt extract employed in the original procedure (which extract is no longer available), the modified procedure uses a mixture of sodium taurocholate (0.15 g), glycocholic acid (0.15 g), ursodeoxycholic acid (0.05 g), cholic acid (0.05 g), and glycodeoxycholic acid (0.05 g). These five bile acids are ground together with a mortar and pestle to produce a fine white powder that is incorporated into the FaSSCoF, as outlined below.
FaSSCoF medium: Tris(hydroxymethyl)aminomethane (Tris; 0.275 g) and maleic acid (0.44 g) are dissolved in water (35 mL) to give a solution whose pH is adjusted to 6.5 by treatment with 0.5M NaOH (ca. 12 mL). The solution is then made up to 50 mL with water. A portion of this Tris/maleate buffer solution (ca. 25 mL) is added to a 0.5 L round-bottomed flask, before being treated with 0.00565 g of the bile acid mixture described above. Solutions of phosphatidylcholine (0.0111 g) in DCM (0.15 mL) and palmitic acid (0.0013 g) in DCM (0.15 mL) are added, then the organic solvent is evaporated off under reduced pressure at 40° C. until a clear solution, with no perceptible DCM odour, is achieved. The volume of the evaporated solution is adjusted to 50 mL by addition of the remainder of Tris/maleate buffer, then BSA (0.115 g) is added, before being dissolved by gentle agitation.
Solubility Determination: Test compounds are suspended in the pH 6.5 FaSSCoF medium to give a maximum final concentration of 2-10 mg/mL. The suspensions are equilibrated at 25° C. for 24 h, before being filtered through a glass fibre C filter. The filtrates are then diluted as appropriate for injection and quantification by HPLC with reference to a standard. Different volumes of the standard, diluted and undiluted sample solutions are injected and the solubilities are calculated using the peak areas determined by integration of the peak found at the same retention time as the principal peak in the standard injection.

Converted amounts (≈) assume the structure as drawn. Read-outs that look alike come from different tables or passages of the source.

p38 MAPKα, sequence (Q16539 whole entry, canonical isoform): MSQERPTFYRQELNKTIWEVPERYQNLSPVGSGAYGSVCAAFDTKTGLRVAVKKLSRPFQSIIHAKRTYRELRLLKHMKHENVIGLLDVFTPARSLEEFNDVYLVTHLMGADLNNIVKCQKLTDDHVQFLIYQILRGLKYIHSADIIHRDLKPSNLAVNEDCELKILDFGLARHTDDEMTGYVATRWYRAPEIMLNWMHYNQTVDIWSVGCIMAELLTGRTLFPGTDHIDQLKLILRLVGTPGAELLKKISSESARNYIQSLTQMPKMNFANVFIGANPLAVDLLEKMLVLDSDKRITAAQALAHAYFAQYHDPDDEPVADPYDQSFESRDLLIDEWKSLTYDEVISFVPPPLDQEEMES

Usually IC50 stands for the concentration that gives 50% inhibition. As to `COc1cc(Nc2nccc(Oc3ccc(NC(=O)Nc4cc(C(C)(C)C)cc(NS(C)(=O)=O)c4OC)c4ccccc34)n2)cc(OCCOCCOCC(=O)O)c1` [Example 2, 2-(2-(2-(3-((4-((4-(3-(5-(tert-Butyl)-2-methoxy-3-(methylsulfonamido)phenyl)ureido)-naphthalen-1-yl)oxy)pyrimidin-2-yl)amino)-5-methoxyphenoxy)ethoxy)ethoxy)acetic acid], the concentration for half-maximal inhibition (IC50) was 23 nM on p38 MAPKα; 14 nM at c-Src; 8 nM against Syk; 24.6 nM with IL-8 release in PBMCs; 39.4 nM in data set [1]. The “% Viability at 1 μg/mL” value in the data set with Jurkat cells (1 μg/mL) was determined as 99%. Further, the “% Viability at 5 μg/mL” value in the data set on Jurkat cells (5 μg/mL) stood at 99%. Besides, in the data set with Jurkat cells (20 μg/mL), the “% Viability at 20 μg/mL” value was 97%. Further, the solubility thermodynamic at 24 h in data set [2] (Run 1, read-out: pH 6.5 FaSSCoF Solubility Run 1) was 90 µg/mL (≈ 110 µM); in data set [2] (Run 2, read-out: pH 6.5 FaSSCoF Solubility Run 2) it was 60 µg/mL (≈ 73.3 µM).
